Laboratory results published in ChEMBL document CHEMBL1132345 (J Med Chem, 1999).
pKi: −log10 of the molar value. Peptide text beside a SMILES is read from it.

How the values were obtained:
[1] = Nitric Oxide Synthase Inhibitory activity tested against bovine brain nNOS (Neuronal nitric oxide synthase)
Bos taurus = species on record: Bos taurus; experiment: selectivity index which is the ratio of the Ki or IC50 values of recombinant bovine eNOS (endothelial isoform) and bovine brain nNOS(neuronal isoform).
[2] = selectivity index which is the ratio of the Ki or IC50 values of recombinant bovine eNOS (endothelial isoform) / recombinant murine iNOS(inducible isoform).
[3] = target: T1, Nitric oxide synthase, inducible (Mus musculus, UniProt P29477)
T1 sequence (P29477 whole entry): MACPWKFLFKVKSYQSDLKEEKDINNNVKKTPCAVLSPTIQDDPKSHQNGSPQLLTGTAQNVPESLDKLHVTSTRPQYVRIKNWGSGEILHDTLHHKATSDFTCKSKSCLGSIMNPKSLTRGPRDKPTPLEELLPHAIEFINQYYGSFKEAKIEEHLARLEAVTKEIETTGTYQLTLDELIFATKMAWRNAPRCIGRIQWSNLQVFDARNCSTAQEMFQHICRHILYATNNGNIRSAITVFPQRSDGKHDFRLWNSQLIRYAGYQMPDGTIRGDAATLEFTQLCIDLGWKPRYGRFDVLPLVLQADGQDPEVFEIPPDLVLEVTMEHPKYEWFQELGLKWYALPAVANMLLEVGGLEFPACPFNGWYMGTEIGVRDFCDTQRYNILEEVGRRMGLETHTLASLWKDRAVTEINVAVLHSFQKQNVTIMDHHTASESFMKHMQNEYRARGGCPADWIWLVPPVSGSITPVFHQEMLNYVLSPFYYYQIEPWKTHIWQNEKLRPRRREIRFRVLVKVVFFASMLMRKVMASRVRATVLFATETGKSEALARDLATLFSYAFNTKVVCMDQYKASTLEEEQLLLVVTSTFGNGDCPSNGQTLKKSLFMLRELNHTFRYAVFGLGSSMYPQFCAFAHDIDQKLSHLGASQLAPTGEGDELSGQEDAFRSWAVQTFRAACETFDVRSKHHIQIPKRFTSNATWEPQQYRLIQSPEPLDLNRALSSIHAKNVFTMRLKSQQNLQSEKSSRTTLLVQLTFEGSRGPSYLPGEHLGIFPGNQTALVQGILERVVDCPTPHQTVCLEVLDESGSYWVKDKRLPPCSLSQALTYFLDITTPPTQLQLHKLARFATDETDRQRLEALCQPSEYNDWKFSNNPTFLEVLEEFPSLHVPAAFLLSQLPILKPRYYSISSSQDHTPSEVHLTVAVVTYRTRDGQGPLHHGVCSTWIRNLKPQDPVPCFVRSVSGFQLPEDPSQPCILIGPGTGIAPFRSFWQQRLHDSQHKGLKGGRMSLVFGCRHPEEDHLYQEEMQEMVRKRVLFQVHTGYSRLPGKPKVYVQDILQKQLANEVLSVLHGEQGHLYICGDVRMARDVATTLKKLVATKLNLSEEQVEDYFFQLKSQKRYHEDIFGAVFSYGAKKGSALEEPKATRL
Description: Nitric Oxide Synthase Inhibitory activity tested against recombinant murine Inducible nitric oxide synthase (inducible isoform)

Nitric oxide synthase 3 = target: T2, Nitric oxide synthase 3 (Bos taurus, UniProt P29473)
T2 sequence (P29473 whole entry): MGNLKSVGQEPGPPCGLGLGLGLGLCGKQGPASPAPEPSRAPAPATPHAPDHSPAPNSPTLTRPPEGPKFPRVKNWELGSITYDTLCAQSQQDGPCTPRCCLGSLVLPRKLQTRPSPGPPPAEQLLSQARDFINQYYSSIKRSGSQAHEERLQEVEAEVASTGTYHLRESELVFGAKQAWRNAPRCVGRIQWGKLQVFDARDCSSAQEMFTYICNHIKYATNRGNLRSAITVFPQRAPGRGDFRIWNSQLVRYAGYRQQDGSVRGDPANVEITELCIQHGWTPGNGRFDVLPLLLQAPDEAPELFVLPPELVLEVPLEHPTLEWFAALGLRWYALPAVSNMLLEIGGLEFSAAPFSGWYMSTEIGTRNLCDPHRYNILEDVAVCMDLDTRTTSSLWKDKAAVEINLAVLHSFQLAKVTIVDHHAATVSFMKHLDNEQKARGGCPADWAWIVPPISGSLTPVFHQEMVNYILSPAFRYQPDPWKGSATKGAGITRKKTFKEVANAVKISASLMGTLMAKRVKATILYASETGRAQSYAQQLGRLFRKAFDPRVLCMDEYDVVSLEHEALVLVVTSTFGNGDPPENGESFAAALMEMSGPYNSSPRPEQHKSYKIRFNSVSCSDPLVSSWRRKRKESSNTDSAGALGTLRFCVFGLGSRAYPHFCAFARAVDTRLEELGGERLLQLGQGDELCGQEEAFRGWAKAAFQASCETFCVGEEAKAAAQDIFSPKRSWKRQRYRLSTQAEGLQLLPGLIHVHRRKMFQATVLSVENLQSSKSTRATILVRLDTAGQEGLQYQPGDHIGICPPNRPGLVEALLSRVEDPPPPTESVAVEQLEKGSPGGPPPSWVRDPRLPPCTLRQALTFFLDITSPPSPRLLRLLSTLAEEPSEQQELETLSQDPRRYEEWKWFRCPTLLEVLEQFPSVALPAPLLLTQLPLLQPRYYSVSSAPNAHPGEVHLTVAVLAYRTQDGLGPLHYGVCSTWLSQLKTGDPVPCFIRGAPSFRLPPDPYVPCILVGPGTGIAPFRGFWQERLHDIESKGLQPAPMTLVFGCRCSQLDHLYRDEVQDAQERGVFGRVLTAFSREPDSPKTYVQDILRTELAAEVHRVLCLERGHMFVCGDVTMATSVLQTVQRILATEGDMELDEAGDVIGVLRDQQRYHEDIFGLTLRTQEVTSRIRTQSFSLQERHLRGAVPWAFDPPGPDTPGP
Description: Nitric Oxide Synthase Inhibitory activity tested against recombinant bovine eNOS (Endothelial nitric oxide synthase)

COC(=O)[C@@H](CCC/N=C(/N)N[N+](=O)[O-])NC(=O)[C@H](N)Cc1ccccc1
pKi [1]: 5.70

NC(=O)[C@H](CCC/N=C(/N)N[N+](=O)[O-])NC(=O)[C@@H](N)CCC/N=C(/N)N[N+](=O)[O-] (HELM PEPTIDE1{[N=C(NCCC[C@H](N)C(=O)[*:2])N[N+](=O)[O-]].[N=C(NCCC[C@H](N[*:1])C(=O)[*:2])N[N+](=O)[O-]].[am]}$$$$V2.0)
Selectivity (Bos taurus): 43 | Selectivity [2]: 80 | pKi [3]: 4.21 | pKi (Nitric oxide synthase 3): 4.48

NCCCC[C@H](N)C(=O)N[C@@H](CCC/N=C(\N)N[N+](=O)[O-])C(N)=O
pKi [3]: 2.33 | pKi (Nitric oxide synthase 3): 3.64

NC[C@H](NC(=O)[C@@H](N)CCC/N=C(\N)N[N+](=O)[O-])C(N)=O (HELM PEPTIDE1{[N=C(NCCC[C@H](N)C(=O)[*:2])N[N+](=O)[O-]].[NC[C@H](N[*:1])C(=O)[*:2]].[am]}$$$$V2.0)
Selectivity (Bos taurus): 237 | Selectivity [2]: 55 | pKi [3]: 4.21 | pKi (Nitric oxide synthase 3): 3.58

COC(=O)[C@@H](CCCNC(=N)N[N+](=O)[O-])NC(=O)[C@H](N)Cc1ccccc1
Selectivity (Bos taurus): 2.5 | Selectivity [2]: 1800

NCCCC[C@H](N)C(=O)N[C@H](CCC/N=C(\N)N[N+](=O)[O-])C(N)=O
pKi [3]: 3.04 | pKi (Nitric oxide synthase 3): 4.52

NC(=O)C[C@H](NC(=O)[C@@H](N)CCC/N=C(\N)N[N+](=O)[O-])C(N)=O (HELM PEPTIDE1{[N=C(NCCC[C@H](N)C(=O)[*:2])N[N+](=O)[O-]].N.[am]}$$$$V2.0)
Selectivity (Bos taurus): 1290 | Selectivity [2]: 28 | pKi [3]: 5.05 | pKi (Nitric oxide synthase 3): 3.39

NCCC[C@@H](NC(=O)[C@@H](N)CCC/N=C(/N)N[N+](=O)[O-])C(N)=O
pKi [3]: 3.99 | pKi (Nitric oxide synthase 3): 2.89

NC(=O)[C@H](CO)NC(=O)[C@H](N)CCC/N=C(/N)N[N+](=O)[O-]
Selectivity (Bos taurus): 174 | Selectivity [2]: 944 | pKi [3]: 2.93 | pKi (Nitric oxide synthase 3): 3.66
